From patent EP4775567A1, “IONIZABLE CATIONIC LIPID COMPOUNDS AS WELL AS PREPARATION METHOD THEREFOR AND USE THEREOF” (Scindy Pharmaceutical (Suzhou) Co., Ltd, priority 2023, dated 2025)

What was measured:
HEK 293T cells = test: In vitro transfection efficiency of luciferase mRNA lipid nanoparticles (luciferase activity); assay type: cell-based; settings: 100 ng dose, 96-well plate, 24 h incubation; luciferase mRNA lipid nanoparticles
Procedure: (§1) Luciferase mRNA was diluted in a 10-100 mM sodium citrate buffer solution at pH 4.0, with the concentration of the mRNA solution being 135 µg/ml. A mixed lipid ethanol solution was prepared at a molar ratio of ionizable cationic lipid compound (each exemplary compound) : DSPC: cholesterol : 2-[(polyethylene glycol)-2000]-N,N-ditetradecylacetamide (ALC-0159) of 50:10:38.5:1.5. The mRNA solution and the mixed lipid solution were mixed at a volume ratio of 3:1 in a nanodrug preparation device, followed by ultrafiltration to obtain luciferase mRNA lipid nanoparticles.
HEK-293T cells were used to evaluate the in vitro transfection efficiency of lipid nanoparticle compositions prepared from each exemplary compound. HEK293T cells were routinely cultured in DMEM + 10% FBS medium to ensure the cells were in the logarithmic growth phase. One day before transfection, the cells were seeded into a 96-well culture plate at an appropriate cell density and grown overnight. At the time of transfection, the cell confluency needed to reach 70-90%. The lipid nanoparticle compositions prepared from each exemplary compound were diluted into 4 different dose concentrations with DMEM and added to the 96-well cell culture plate, resulting in final concentrations of 400 ng, 200 ng, 100 ng and 50 ng per well, respectively. luciferase plasmid transfected using Lipofectamine 2000 was used as the positive control (PC). After incubation for 24 h in a 5% CO2 incubator at 37°C, the substrate was added to the wells, and the luciferase activity was determined using a microplate reader. […] The luciferase activity of the luciferase mRNA lipid nanoparticles prepared from Compound 1005 in HEK293T cells is shown in Fig. 1.

[1] = Zeta potential by electrophoretic light scattering; assay type: physicochemical; settings: luciferase mRNA lipid nanoparticles prepared from the compound; 25°C
Procedure: as §1
(§2) • 1. Determination of particle size and polydispersity index (PDI): The average particle size and PDI of the nanoparticle sample solutions in the examples were determined by dynamic light scattering using Malvern ZetaSizer Nano ZS90. The measurement angle was 90°, the refractive index of the dispersant was 1.330, and the test temperature was 25°C. • 2. Zeta potential: The Zeta potential of the nanoparticle sample solutions in the examples was determined by electrophoretic light scattering (ELS) using Malvern ZetaSizer Nano ZS90. Refractive index of the dispersant: 1.330, Test temperature: 25°C. • 3. Encapsulation Rate: The Encapsulation Rate of luciferase mRNA in lipid nanoparticles was determined using a Quant-it Ribogreen RNA quantitation kit (ThermoFisher Scientific, UK) in accordance with the manufacturer's instructions.

[2] = Particle size and polydispersity index (PDI) by dynamic light scattering; assay type: physicochemical; settings: luciferase mRNA lipid nanoparticles prepared from the compound; 25°C
Procedure: as §1, §2

[3] = Encapsulation Rate of luciferase mRNA in lipid nanoparticles (Quant-it Ribogreen RNA kit); assay type: physicochemical; settings: luciferase mRNA in lipid nanoparticles prepared from the compound
Procedure: as §1, §2

female Balb/c mice = test: In vivo transfection efficiency and safety of luciferase mRNA lipid nanoparticles (whole-body live imaging); settings: tail vein injection, single dose 0.3 mpk, 6 h after administration
Procedure: as §1
6-8 week-old female Balb/c mice were used to evaluate the in vivo transfection efficiency and safety of lipid nanoparticle compositions prepared from each exemplary compound. The lipid nanoparticles prepared from each exemplary compound were administered by tail vein injection at a single dose of 0.3 mpk. At specific time points after administration (e.g., 3 h, 6 h), live imaging of the animals was performed using a PerkinElmer small animal imaging system to determine the bioluminescent signal. The whole-body live imaging of mice at 3 h/6 h after intravenous administration of luciferase mRNA lipid nanoparticles prepared from Compound 1008 is shown in Fig. 2. […] Table 3 Summary of in vitro/in vivo Activity Evaluation of Lipid Nanoparticles Prepared from Compounds

[4] = Apparent pKa of blank lipid nanoparticles by TNS fluorescence; assay type: physicochemical; settings: compound:DSPC:cholesterol:ALC-0159 50:10:38.5:1.5, pH 2 to 11
Procedure: The apparent pKa of lipid nanoparticles is correlated with the efficacy of lipid nanoparticles in delivering nucleic acids (see Jayaraman et al., Angewandte Chemie, International Edition (2012), 51(34), 8529-8533; Semple et al., Nature Biotechnology 28, 172-176 (2010)). The apparent pKa of nanoparticles prepared from different lipid compounds was determined using fluorescence based on 2-(p-toluidino)-6-naphthalenesulfonic acid (TNS). The fluorescent probe has no fluorescence in water but […] emits fluorescence when bound to lipid membranes. Blank lipid nanoparticles were prepared at a molar ratio of ionizable cationic lipid compound (each exemplary compound) : DSPC : cholesterol : 2-[(polyethylene glycol)-2000]-N,N-ditetradecylacetamide (ALC-0159) of 50:10:38.5:1.5. They were diluted in different pH buffer solutions having a pH ranging from 2 to 11. An aqueous TNS solution was added and mixed. Then, the mixtures were added to a 96-well plate (black bottom), respectively. Detection was performed with excitation wavelength at 325 nm and the emission wavelength at 435 nm, with top detection. Measurement was performed 10 times for each well, and the fluorescence intensity was recorded. A pH-fluorescence intensity curve was plotted to determine the apparent pKa.

- Zeta Potential [1]: -4.98 mV
- Particle Size [2]: 85.78 nm
- Polydispersity Index (PDI) [2]: 0.068
- Encapsulation Rate [3]: 95.9%
- Apparent pKa [4]: 5.13
SMILES: CCCCCCCCCCCC(CCCCCC)C(=O)OCC(COC(=O)C(CCCCCC)CCCCCCCCCCC)(COC(=O)C(CCCCCC)CCCCCCCCCCC)NCCC(=O)NCCN(C)C (stereo not shown) [Compound 1007]
- HEK 293T Cell Luciferase Activity (HEK 293T cells): 1.60×10^5 RLU
- Mouse Whole-Body Average Fluorescence Signal (female Balb/c mice): 1.34×10^6 p/s/cm^2/sr
